Measurements as given in the NIST ThermoML archive (doi:10.1016/j.jct.2012.04.026).

How the values were obtained:
[1] = refractive index (Na D-line) (dimensionless); conditions: Liquid, Standard Abbe refractometry
[2] = Liquid, Vibrating tube method
[3] = refractive index (Na D-line) (dimensionless); wn = mass fraction of the nth substance listed; conditions: 313.15 K, Liquid, Standard Abbe refractometry
[4] = wn = mass fraction of the nth substance listed; conditions: 313.15 K, Liquid, Vibrating tube method

CCn1cc[n+](C)c1.O=S(=O)([N-]S(=O)(=O)C(F)(F)F)C(F)(F)F
Conditions	mass density, [2] [kg/m3]	refractive index, [1]
298.15 K, 101.33 kPa	1518.74	1.42307
313.15 K, 101 kPa	1502.2	1.41695
313.15 K, 101.3 kPa	1502.2	–
313.15 K, 101.33 kPa	–	1.41695

CCCC[n+]1ccn(C)c1.O=S(=O)([N-]S(=O)(=O)C(F)(F)F)C(F)(F)F + CCO
Conditions	mass density, 101 kPa [kg/m3]	mass density, 101.3 kPa [kg/m3]	refractive index, 101 kPa	refractive index, 101.3 kPa	refractive index, 10234 kPa
[3], w2 = 0.008	–	–	1.42305	1.42305	1.42305
[3], w2 = 0.015	–	–	1.42222	1.42222	1.42222
[3], w2 = 0.032	–	–	1.41981	1.41981	1.41981
[3], w2 = 0.084	–	–	1.41301	1.41301	1.41301
[3], w2 = 0.156	–	–	1.40517	1.40517	1.40517
[3], w2 = 0.202	–	–	1.40056	1.40056	1.40056
[3], w2 = 0.385	–	–	1.38611	1.38611	1.38611
[3], w2 = 0.48	–	–	1.37983	1.37983	1.37983
[4], w2 = 0.008	1411.58	1411.58	–	–	–
[4], w2 = 0.015	1403.51	1403.51	–	–	–
[4], w2 = 0.032	1384.48	1384.48	–	–	–
[4], w2 = 0.084	1329.16	1329.16	–	–	–
[4], w2 = 0.156	1259.12	1259.12	–	–	–
[4], w2 = 0.202	1218.21	1218.21	–	–	–
[4], w2 = 0.385	1077.75	1077.75	–	–	–
[4], w2 = 0.48	1016.97	1016.97	–	–	–

CCO [ethanol]
Conditions	mass density, [2] [kg/m3]	refractive index, [1]
298.15 K, 101.33 kPa	785.2	–
313.15 K, 101 kPa	773.03	1.35353
313.15 K, 101.3 kPa	773.03	–
313.15 K, 101.33 kPa	–	1.35353

CCCn1cc[n+](C)c1.O=S(=O)([N-]S(=O)(=O)C(F)(F)F)C(F)(F)F
Conditions	mass density, [2] [kg/m3]	refractive index, [1]
298.15 K, 101.33 kPa	1473.97	1.42525
313.15 K, 101 kPa	1458.33	1.42016
313.15 K, 101.3 kPa	1458.33	–
313.15 K, 101.33 kPa	–	1.42016

CCCC[n+]1ccn(C)c1.O=S(=O)([N-]S(=O)(=O)C(F)(F)F)C(F)(F)F
Conditions	mass density, [2] [kg/m3]	refractive index, [1]
298.15 K, 101.33 kPa	1436.1	1.42672
313.15 K, 101 kPa	1420.7	1.42437
313.15 K, 101.3 kPa	1420.7	–
313.15 K, 101.33 kPa	–	1.42437

CCn1cc[n+](C)c1.O=S(=O)([N-]S(=O)(=O)C(F)(F)F)C(F)(F)F + CCO
Conditions	mass density, 101 kPa [kg/m3]	mass density, 101.3 kPa [kg/m3]	refractive index, 101 kPa	refractive index, 101.3 kPa	refractive index, 10234 kPa
[3], w2 = 0.014	–	–	1.41547	1.41547	1.41547
[3], w2 = 0.034	–	–	1.41333	1.41333	1.41333
[3], w2 = 0.072	–	–	1.40945	1.40945	1.40945
[3], w2 = 0.126	–	–	1.40425	1.40425	1.40425
[3], w2 = 0.278	–	–	1.3915	1.3915	1.3915
[3], w2 = 0.324	–	–	1.38812	1.38812	1.38812
[3], w2 = 0.635	–	–	1.36939	1.36939	1.36939
[4], w2 = 0.014	1481.64	1481.64	–	–	–
[4], w2 = 0.034	1456.07	1456.07	–	–	–
[4], w2 = 0.072	1409.69	1409.69	–	–	–
[4], w2 = 0.126	1347.49	1347.49	–	–	–
[4], w2 = 0.278	1195.34	1195.34	–	–	–
[4], w2 = 0.324	1155.44	1155.44	–	–	–
[4], w2 = 0.635	943.07	943.07	–	–	–

CCCn1cc[n+](C)c1.O=S(=O)([N-]S(=O)(=O)C(F)(F)F)C(F)(F)F + CCO
Conditions	mass density, 101 kPa [kg/m3]	mass density, 101.3 kPa [kg/m3]	refractive index, 101 kPa	refractive index, 101.3 kPa	refractive index, 10234 kPa
[3], w2 = 0.019	–	–	1.41801	1.41801	1.41801
[3], w2 = 0.035	–	–	1.4161	1.4161	1.4161
[3], w2 = 0.082	–	–	1.41105	1.41105	1.41105
[3], w2 = 0.133	–	–	1.40604	1.40604	1.40604
[3], w2 = 0.186	–	–	1.40101	1.40101	1.40101
[3], w2 = 0.267	–	–	1.39403	1.39403	1.39403
[3], w2 = 0.55	–	–	1.37499	1.37499	1.37499
[4], w2 = 0.019	1433.96	1433.96	–	–	–
[4], w2 = 0.035	1414.83	1414.83	–	–	–
[4], w2 = 0.082	1362.5	1362.5	–	–	–
[4], w2 = 0.133	1309.15	1309.15	–	–	–
[4], w2 = 0.186	1256.95	1256.95	–	–	–
[4], w2 = 0.267	1183.97	1183.97	–	–	–
[4], w2 = 0.55	983.52	983.52	–	–	–

CCCCCC[n+]1ccn(C)c1.O=S(=O)([N-]S(=O)(=O)C(F)(F)F)C(F)(F)F
Conditions	mass density, [2] [kg/m3]	refractive index, [1]
298.15 K, 101.33 kPa	1371.99	1.43016
313.15 K, 101 kPa	1356.95	1.42542
313.15 K, 101.3 kPa	1356.95	–
313.15 K, 101.33 kPa	–	1.42542

CCCCCCC [heptane]
298.15 K, 101.33 kPa
Conditions	mass density [kg/m3]	refractive index
[1]	–	1.38529
[2]	679.57	–

CCCCCC[n+]1ccn(C)c1.O=S(=O)([N-]S(=O)(=O)C(F)(F)F)C(F)(F)F + CCO
Conditions	mass density, 101 kPa [kg/m3]	mass density, 101.3 kPa [kg/m3]	refractive index, 101 kPa	refractive index, 101.3 kPa	refractive index, 10234 kPa
[3], w2 = 0.099	–	–	1.41392	1.41392	1.41392
[3], w2 = 0.231	–	–	1.40128	1.40128	1.40128
[3], w2 = 0.328	–	–	1.39325	1.39325	1.39325
[3], w2 = 0.529	–	–	1.37912	1.37912	1.37912
[3], w2 = 0.646	–	–	1.37165	1.37165	1.37165
[3], w2 = 0.74	–	–	1.36626	1.36626	1.36626
[3], w2 = 0.901	–	–	1.35782	1.35782	1.35782
[4], w2 = 0.099	1270.96	1270.96	–	–	–
[4], w2 = 0.231	1161.07	1161.07	–	–	–
[4], w2 = 0.328	1092.32	1092.32	–	–	–
[4], w2 = 0.529	973.37	973.37	–	–	–
[4], w2 = 0.646	914.93	914.93	–	–	–
[4], w2 = 0.74	872.96	872.96	–	–	–
[4], w2 = 0.901	808.24	808.24	–	–	–
